Data taken from patent US20240041813A1, “VERY-LONG-CHAIN POLYUNSATURATED FATTY ACIDS, ELOVANOID HYDROXYLATED DERIVATIVES, AND METHODS OF USE” (priority 2020, published 2024).
Entries after “also recorded” stand apart in the source; their conditions may differ.

Columns and labels:
[1] = test system: receptor-binding domain (RBD) of the SARS-CoV-2 spike; assay type: cell-based, human
human alveolar cells = assay: Fate of added VLC-PUFAs in human bronchiole/alveoli cell cultures (LC-MS/MS); conditions: human lung cell cultures; paired with FA18:1 or FA18:0
Cdkn2a (p16INK4a) = assay: HCEC challenged with IFNγ: Cdkn2a gene expression; assay type: cell-based, human; conditions: IFNγ 100 ng/ml
Description: All experiments with human corneal epithelial cells were approved by the Institutional Review Board of LSUHNO and conducted in accordance with NIH guidelines. HCEC were kept frozen in the laboratory at passage 2544. Cells were maintained in keratinocyte growth (KGM) medium containing the keratinocyte basal medium (KBM) (Lonza: CC-3101) supplemented with bovine pituitary extract (BPE), hEGF, Insulin, Hydrocortisone and Gentamicin Sulfate-Amphotericin (GA-1000) (Lonza, Cat. CC-4131). For all experiments, cells were seeded at 30,000 cells/cm2.
(§1) For screening the stimulation of receptor ACE2 by cytokines, the HCEC were cultured with KGM until 50-60% confluence. Then, changed to KBM containing IL-1β, -2, -6 and 8, IFN-α, -ε, and -γ or TNFα at 1, 10 or 100 ng/ml. The cells were harvested after 6 hours and analyze for the gene expression of Ace2. In other experiments, HCEC were stimulated with IFNγ, and thereafter, lipid mediators were added. For the Alexa 594-conjugated RBD binding, IFNγ was used as a cytokine trigger. At 12 hours after cytokine exposure and lipid mediator treatments, […] of labeled RBD was added to the medium. The evaluation of RBD binding was conducted 24 hours after.
Quantitative PCR was performed with the Biomark HD system (Fluidigm, San Francisco, CA, USA). Briefly, 200 ng of RNA was reverse-transcribed using iScript Reverse Transcription Supermix (Bio-Rad), and the cDNA was pre-amplified using the PreAmp Master Mix (PN 100-5580; Fluidigm). The cDNA was then subjected to Exonuclease I treatment and diluted 5 times in TE Buffer. The qPCR reaction mixture and primer reaction mixture were made and loaded into the Biomark 96.96 IFC™ (Integrated Fluidic Circuit). The enzyme reaction was mixed using Juno™ Controller (Fluidigm) and run using the cycling program of (i) 70° C. for 40 minutes followed by 60° C. for 30 seconds, (ii) hot start for 1 minute at 95° C., (iii) 30 cycles of denaturation at 96° C. for 5 seconds, and annealing at 60° C. for 20 seconds, and (iv) melting curves between 60° C. and 95° C. with 1° C. increments/3 seconds. The Ct value of target genes was normalized to the house-keeping genes Gapdh, Hprt1, and Tfrc before normalized to the vehicle group. Relative fold changes from the ΔΔCT calculation was used to make the graph.

[2] = test system: human corneal epithelial cells (HCEC); assay: HCEC challenged with IFNγ: SASP secretome (β-Gal staining); assay type: cell-based; conditions: HCEC 24 h after IFN-γ challenge
Alexa 594-RBD [3] = assay type: in vivo; conditions: rat cornea after alkali burn; 14 days treatment; Alexa 594-RBD 1 μg/eye, 3 times at day 15, examined a day later
ACE2 [4] = assay: Rat cornea alkali burn: corneal RNA-seq, Ace2 gene expression; assay type: in vivo; conditions: rat cornea after alkali burn, eye drops 3 times/day for 14 days, RNA-seq day 14
Procedure: (§2) The rats were anesthetized by intraperitoneal injection of Ketamine (50-100 mg/kg) plus xylazine (5-10 mg/kg). A 4 mm diameter filter paper soaked in 1 N NaOH was placed on the central cornea of the right eye for 45 seconds, and then the eye was thoroughly washed with […] of saline. After injury, the rats were randomly divided into five treatment groups: vehicle; lipoxin A4 (LXA4) from Cayman Chemical (Ann Arbor, MI, USA); R,R Resolvin D6 isomer (RvD6i), R,R neuroprotection D (NPD1), and elovanoid (ELV)-N32. All lipid solutions were prepared at the final concentration of […] using PBS with the minimal contamination of ethanol by evaporating the ethanol and immediately dissolve the lipids in PBS, then vortex well for 2 min. Topical administration (20 μl) was done 3×/day for 14 days. The experiments were double-blinded with the lipid mediators coded during the whole experiments. At the end of the study, when all data was collected, the code was opened.
(§3) Injured corneas (n=5/condition) were harvested and homogenized with TRIzol (Thermo Fisher Scientific) on ice with a glass Dounce homogenizer. RNA sequencing was performed as described^14. Briefly, after mRNA extraction and determination of purity, 8 ng of total RNA was reverse transcribed, and total cDNAs were amplified using ISPCR primer, and the library was made with the Nextera XT DNA library preparation kit (Illumina, San Diego, CA, USA). The libraries were pooled with the same molarity and sequenced using the NextSeq 500/550 High Output Kit v2 (75 cycles, Illumina). After demultiplexing, RNA-seq data were aligned to the Rattus Norvegicus reference genome (.ensembl.org/pub/release-98/fasta/rattus_norvegicus/dna/) using the Subread package v2.0.1 alignment function39. The BAM files for sequencing data alignment were counted using featureCounts function of Subread tool^40 using the macOS Catalina. The raw count data were subjected to differential gene expression analysis using DESeq2 package for R^41 with the vehicle group as reference. The adjusted p-values were named as the false discover rate (FDR).

injured rat cornea = assay: Rat cornea alkali burn: corneal RNA-seq, cytokine storm, NFkB/inflammation, senescence, integrin and protease genes; assay type: in vivo; conditions: for availability of ACE2, TMPRSS2 and Furin increased after alkali burn: rat cornea after alkali burn, RNA-seq, ACE2 and Furin confirmed by JESS (Example 15)
Procedure: as §2, §3

ACE2 [5] = assay: Rat cornea alkali burn: ACE2 abundance by Jess capillary-based Western Blot; assay type: in vivo; conditions: rat cornea after alkali burn, eye drops 20 μl/eye, 3 times/day for 14 days, day 14
Description: Sprague-Dawley rats (8-week-old male) were obtained from Charles River Laboratories (Wilmington, MA, USA) and kept at the Animal Care of the Neuroscience Center of Excellence, Louisiana State University Health (LSUH; New Orleans, LA, USA). All animals were handled in compliance with the guidelines of the ARVO Statement for the Use of Animals in Ophthalmic and Vision Research, and the experimental protocol was approved by the Institutional Animal Care and Use Committee (IACUC) at LSUH.
as §2
Briefly, samples were lysed with RIPA buffer containing a protease inhibitor cocktail (Sigma, Cat. P8340). Cell debris was removed after 10 min centrifugation at 16,000×g. Protein concentration was determined by BCA assay (Thermo Fisher Scientific, Cat. 23225) and 1 μg used/reaction. Fluorescent Master Mix was mixed with 40 mM DTT, and the mixture was added to each sample to provide a denaturing and reducing environment. Samples were heated at 95° C./5 min, and 3 μL of each sample were loaded. The 12-230 kDa cartridge (Protein Simple—#SM-W004) was used. Primary antibodies were diluted in antibody diluent 2 buffer (Protein Simple, #042-203) while the working solution of secondary antibodies was provided by the company (Protein Simple, #042-206). Then, the filled plate was spin-down for 10 min at 1,000×g to remove bubbles and plate, and capillaries were loaded into the Jess machine. For data analysis, the area of spectra that matched the molecular weight of the target protein was used. To reduce the coefficient variant, we analyzed the GAPDH for each capillary. The ratio of the targeted protein to GAPDH was used for statistical comparisons. For visualization, the artificial lanes generated from spectra volume was used.

Alexa 594-RBD [6] = assay: HCEC challenged with IFNγ: Alexa 594-RBD binding (unbiased imaging, Imaris); assay type: cell-based, human; conditions: IFNγ 100 ng/ml and lipid mediators 200 nM for 12 h, images 24 h after RBD
Procedure: as §1
Twenty-four hours after Alexa 594-RBD was added to the HCEC, the cells were washed with PBS (3×/5 min) and fixed with 4% paraformaldehyde for 30 minutes at RT. The HCEC were washed 2× with PBS and stained with Hoechst 33342 Solution (ThermoFisher Scientific, Cat. 62249) for 30 minutes at RT. Next, the HCEC were washed 2× with PBS before imaging. For unbiased data collection, 7 designated areas were defined in each well (FIG. 63) and captured with an Olympus FV3000 confocal laser scanning microscopy under “Multi Area Time Lapse” (MATL) mode. All images were acquired with the same parameters and Z-section range, converted and inputted in the Imaris software version 9.5.1. The threshold for the control images was defined by the HCEC without Alexa 594-conjugated RBD of S protein and using it as a threshold filter for the Imaris batch image processing function. The sum of total intensity for each image was used to evaluate the binding efficiency.

ACE2 [7] = assay: Cytokine screening for stimulation of Ace2 in HCEC (dd-PCR); assay type: cell-based, human; conditions: cytokine at 1, 10, and 100 ng/mL, 6 hours

CC/C=C\C/C=C\C/C=C\C/C=C\C/C=C\C/C=C\CCCCCCCCCCCCC(=O)O [32:6, (14Z,17Z,20Z,23Z,26Z,29Z)-dotriaconta-14,17,20,23,26,29-hexaenoic acid]
RBD protein internalization (RBD located below the membrane line) [1]: decrease; also recorded: reduces
incorporation in phosphatidylcholine molecular species (human alveolar cells): incorporated

CC/C=C\C/C=C\C/C=C\C/C=C\C/C=C\C/C=C\CCCCCCCCCCCCCCC(=O)O [34:6, (16Z,19Z,22Z,25Z,28Z,31Z)-tetratriaconta-16,19,22,25,28,31-hexaenoic acid]
RBD protein internalization (RBD located below the membrane line) [1]: decrease; also recorded: reduces
incorporation in phosphatidylcholine molecular species (human alveolar cells): incorporated

CC/C=C\C[C@H](O)\C=C/C=C/C=C/[C@H](O)C/C=C\C/C=C\CCCCCCCCCCCCC(=O)OC [ELV32 methyl ester, methyl (14Z,17Z,20R,21E,23E,25Z,27S,29Z)-20,27-dihydroxydotriaconta-14,17,21,23,25,29-hexaenoate]
RBD of the SARS-CoV-2 spike entrance / internalized RBD [1]: downregulated

CC/C=C\C[C@H](O)C#C/C=C/C=C/[C@H](O)C/C=C\C/C=C\CCCCCCCCCCCCC(=O)OC [ELV 32(AC) acetylenic methyl ester, methyl (14Z,17Z,20R,21E,23E,27S,29Z)-20,27-dihydroxydotriaconta-14,17,21,23,29-pentaen-25-ynoate]
RBD of the SARS-CoV-2 spike entrance / internalized RBD [1]: downregulated

CCCCC[C@@H](O)/C=C/C=C\C=C\C=C\[C@@H](O)[C@@H](O)CCCC(=O)O [LXA4, reference compound]
Cdkn2a activation (Cdkn2a (p16INK4a)): does not
senescence programming genes and SASP secretome activation (β-Gal) [2]: not
binding of Alexa 594-RBD to injured cornea (Alexa 594-RBD [3]): decrease; also recorded: counteracted; also recorded: significant effect
Ace2 gene expression levels (ACE2 [4]): decrease
Ace2 gene expression levels (ACE2 [4]; listed as Lipoxin A4): downregulates
availability of ACE2, TMPRSS2 and Furin increased after alkali burn (injured rat cornea): remarkable blocked
availability of ACE2, TMPRSS2 and Furin increased after alkali burn (injured rat cornea; listed as Lipoxin A4): downregulates
Il6 and Vegfa expression (injured rat cornea; rat cornea, RNA-seq 14 days after injury): reduced
ACE2 abundance (protein, normalized to GAPDH) (ACE2 [5]): decrease
ACE2 abundance (protein, normalized to GAPDH) (ACE2 [5]; listed as Lipoxin A4): downregulates

CC/C=C\C[C@H](O)\C=C/C=C/C=C/[C@H](O)C/C=C\C/C=C\CCC(=O)O [NPD1]
Cdkn2a activation (Cdkn2a (p16INK4a)): decrease
senescence programming genes and SASP secretome activation (β-Gal) [2]: blocked
IFNγ-stimulated Alexa 594-RBD binding (Alexa 594-RBD [6]): decrease; also recorded: attenuated
binding of Alexa 594-RBD to injured cornea (Alexa 594-RBD [3]): fails; also recorded: did not have an effect; also recorded: failed to decrease
ACE2 abundance (protein, normalized to GAPDH) (ACE2 [5]): failed to decrease; also recorded: no effect

CC/C=C\C[C@H](O)/C=C/C=C\C/C=C\C/C=C\C=C\[C@@H](O)CCC(=O)O [RvD6, reference compound]
IFNγ-stimulated Alexa 594-RBD binding (Alexa 594-RBD [6]): decrease

IL1β
internalized RBD signal [1]: increased
Ace2 expression (dd-PCR) (ACE2 [7]): no significant increase

IL6
Ace2 expression (dd-PCR) (ACE2 [7]): no significant increase

IL8
Ace2 expression (dd-PCR) (ACE2 [7]): no significant increase

TNFα
internalized RBD signal [1]: increased
Ace2 expression (dd-PCR) (ACE2 [7]): no significant increase

B1: IFNγ (protein, UniProt P01579 24-161, looked up)
Interferon gamma: QDPYVKEAENLKKYFNAGHSDVADNGTLFLGILKNWKEESDRKIMQSQIVSFYFKLFKNFKDDQSIQKSVETIKEDMNVKFFNSNKKKRDDFEKLTNYSVTDLNVQRKAIHELIQVMAELSPAAKTGKRKRSQMLFRG
Ace2 expression (dd-PCR) (ACE2 [7]): activate

B2: IFNε (protein, UniProt Q86WN2 22-208, looked up)
Interferon epsilon: LDLKLIIFQQRQVNQESLKLLNKLQTLSIQQCLPHRKNFLLPQKSLSPQQYQKGHTLAILHEMLQQIFSLFRANISLDGWEENHTEKFLIQLHQQLEYLEALMGLEAEKLSGTLGSDNLRLQVKMYFRRIHDYLENQDYSTCAWAIVQVEISRCLFFVFSLTEKLSKQGRPLNDMKQELTTEFRSPR
Ace2 expression (dd-PCR) (ACE2 [7]): no significant increase
